Results: patent publication US20190142971A1, “FORMULATION AND DELIVERY OF MODIFIED NUCLEOSIDE, NUCLEOTIDE, AND NUCLEIC ACID COMPOSITIONS” (ModernaTX, Inc., priority 2013, published 2019)

What was measured:
HeLa cells = experiment: Example 75: chemical modifications of luciferase mRNA, RLU (Table 114); format: cell-based; settings: 83 ng luciferase mRNA, 18 to 22 hours
Procedure: The day before transfection, 20,000 HeLa cells (ATCC no. CCL-2; Manassas, Va.) were harvested by treatment with Trypsin-EDTA solution (Life Technologies, Grand Island, N.Y.) and seeded in a total volume of 100 ul EMEM medium (supplemented with 10% FCS and 1× Glutamax) per well in a 96-well cell culture plate (Corning, Manassas, Va.). The cells were grown at 37° C. in 5% CO2 atmosphere overnight. […] Lipofectamine 2000 (LifeTechnologies, Grand Island, N.Y.) was used as transfection reagent and 0.2 ul were diluted in 10 ul final volume of OPTI-MEM. After 5 minutes of incubation at room temperature, both solutions were combined and incubated an additional 15 minute at room temperature. Then the 20 ul combined solution was added to the 100 ul cell culture medium containing the HeLa cells and incubated at room temperature.
After 18 to 22 hours of incubation cells expressing luciferase were lysed with 100 ul of Passive Lysis Buffer (Promega, Madison, Wis.) according to manufacturer instructions. Aliquots of the lysates were transferred to white opaque polystyrene 96-well plates (Corning, Manassas, Va.) and combined with 100 ul complete luciferase assay solution (Promega, Madison, Wis.). The lysate volumes were adjusted or diluted until no more than 2 mio relative light units (RLU) per well were detected for the strongest signal producing samples and the RLUs for each chemistry tested are shown in Table 114. The plate reader was a BioTek Synergy H1 (BioTek, Winooski, Vt.). The background signal of the plates without reagent was about 200 relative light units per well.

Balb-C mice = experiment: Example 88: chemically modified luciferase mRNA in PBS IM, SC, flux (Tables 136, 137); format: in vivo; settings: luciferase mRNA in PBS (pH 7.4), 2.5 mg/kg
Procedure: Twenty minutes prior to imaging, mice were injected intraperitoneally with a D-luciferin solution at 150 mg/kg. Animals were then anesthetized and images were acquired with an IVIS Lumina II imaging system (Perkin Elmer). Bioluminescence was measured as total flux (photons/second) of the entire mouse. The mice were imaged at 2 hours, 8 hours and 24 hours. […] The background signal was 3.84E+05 (p/s).

mouse myoblast (C2C12) = experiment: Example 44: signal sequence exchange, secreted G-CSF ELISA (Table 70); format: cell-based; settings: MM (mouse myoblast C2C12), 250 ng mRNA, supernatant 24 hrs
Excerpt: (§1) These variants included the G-CSF constructs encoding either the wild-type N terminal secretory signal peptide sequence ([…]; SEQ ID NO: 19), no secretory signal peptide sequence, or secretory signal peptide sequences taken from other mRNAs. These included sequences where the wild type GCSF signal peptide sequence was replaced with the signal peptide sequence of either: human α-1-anti trypsin (AAT) ([…]; SEQ ID NO: 20), human Factor IX (FIX) ([…]; SEQ ID NO: 21), human Prolactin (Prolac) ([…]; SEQ ID NO: 22), or human Albumin (Alb) ([…]; SEQ ID NO: 23).
(§2) 250 ng of modified mRNA encoding each G-CSF variant was transfected into HEK293A (293A in the table), mouse myoblast (MM in the table) (C2C12, CRL-1772, ATCC) and rat myoblast (RM in the table) (L6 line, CRL-1458, ATCC) cell lines in a 24 well plate using 1 ul of Lipofectamine 2000 (Life Technologies), each well containing 300,000 cells. […] The data shown in Table 70 reveal that cells transfected with G-CSF mmRNA encoding the Albumin signal peptide secrete at least 12 fold more G-CSF protein than its wild type counterpart.

HEK293A = experiment: as above; format: cell-based; settings: 293A, 250 ng mRNA, Lipofectamine 2000, supernatant 24 hrs
Excerpt: as §1, §2

rat myoblast (L6 line) = experiment: as above; format: cell-based; settings: RM (rat myoblast L6), 250 ng mRNA, supernatant 24 hrs
Excerpt: as §1, §2

human PBMC = experiment: Example 45: PBMC transfection, IFN-alpha ELISA (Table 72); format: cell-based
Procedure: The plates were then incubated at 37 C.
Each condition was done in duplicate.
Shown in Tables 71 and 72 are the average from 2 separate PBMC donors of the G-CSF and IFN-alpha production over time as measured by specific ELISA.

mice = experiment: Example 41: IV lipoplexed G-CSF mRNA in mice, neutrophil count (Table 66); format: in vivo; settings: IV 10% lipoplex, 50 ug at days 0, 2, 4; day 5
Procedure: Neutrophils were measured at days 1, 5 and 8. Controls included non-specific mammalian RNA or the formulation buffer alone (F.Buffer). The mice were bled at days 1, 5 and 8 to determine the effect of mRNA-encoded human G-CSF to increase neutrophil count. The dosing regimen is shown in Table 66 as are the resulting neutrophil counts (thousands/uL; K/uL).

[1] = Example 61: storage stability of G-CSF mRNA, gel electrophoresis (Bio-Rad EXPERION); format: physicochemical
Procedure: Stability experiments were conducted to obtain a better understanding of storage conditions to retain the integrity of modified RNA. […] After the mRNA had been stored for 0 hours, 2 hours, 6 hours, 24 hours, 48 hours, 5 days and 14 days, the mRNA was analyzed by gel electrophoresis using a Bio-Rad EXPERION™ system. The modified, unmodified and lipoplexed G-CSF mRNA was also stored in RNASTABLE® (Biomatrica, Inc. San Diego, Calif.) at 40° C. or water at −80° C. or 40° C. for 35 days before being analyzed by gel electrophoresis.
mRNA samples stored at 4° C., 25° C. and 37° C. were stored in 1×TE buffer or the formulation buffer (150 mM sodium chloride, 2 mM calcium chloride, 2 mM phosphate, 0.5 mM EDTA at a pH of 6.5). The mRNA stored at 4° C. was stable to at least 60 days in both the TE and formulation buffer. At 25° C. the mRNA in formulation buffer was stable out to 14 days and the TE buffer was stable out to at least 6 days. Storage of mRNA in the formulation buffer at 37° C. was stable to 6 days compared to the TE buffer which was stable only until 4 days.

BALB/C mice = experiment: Example 59: G-CSF mRNA IM in mice, serum human G-CSF and mouse IFN-alpha ELISA (Table 93); format: in vivo
[2] = I.M., 200 ug/mouse (R848 75 ug/mouse), 50 ul, 8 hours after dosing

## 5-methylcytosine and pseudouridine
HeLa cells
  RLU: 1601234 RLU

## COc1cn([C@@H]2O[C@H](CO)[C@@H](O)[C@H]2O)c(=O)[nH]c1=O [Formulation 5-methoxyuridine, 5-methoxyuridine]
Balb-C mice; 2 hours
  Flux, Intramuscular Administration: 4.93E+06 p/s
  Flux, Subcutaneous Administration: 7.10E+06 p/s
Balb-C mice; 8 hours
  Flux, Intramuscular Administration: 1.80E+07 p/s
  Flux, Subcutaneous Administration: 9.38E+06 p/s
Balb-C mice; 24 hours
  Flux, Intramuscular Administration: 4.53E+07 p/s
  Flux, Subcutaneous Administration: 1.32E+07 p/s

## CC(=O)Nc1ccn([C@@H]2O[C@H](CO)[C@@H](O)[C@H]2O)c(=O)n1 [Formulation N4-acetylcytidine, N4-acetylcytidine]
Balb-C mice; 2 hours
  Flux, Intramuscular Administration: 1.32E+07 p/s
  Flux, Subcutaneous Administration: 3.07E+07 p/s
Balb-C mice; 8 hours
  Flux, Intramuscular Administration: 2.15E+07 p/s
  Flux, Subcutaneous Administration: 1.23E+07 p/s
Balb-C mice; 24 hours
  Flux, Intramuscular Administration: 4.01E+07 p/s
  Flux, Subcutaneous Administration: 1.28E+07 p/s

## O=c1[nH]cc([C@@H]2O[C@H](CO)[C@@H](O)[C@H]2O)c(=O)[nH]1 [Pseudouridine]
HeLa cells
  RLU: 140234 RLU

## O=c1[nH]c(=O)n([C@@H]2O[C@H](CO)[C@@H](O)[C@H]2O)cc1Br [Sample 5-Bromouridine, 5-Bromouridine]
HeLa cells
  RLU: 6787 RLU

## COc1cn([C@@H]2O[C@H](CO)[C@@H](O)[C@H]2O)c(=O)[nH]c1=O [Sample 5-methoxyuridine, 5-methoxyuridine]
HeLa cells
  RLU: 219657 RLU

## Cn1cc([C@@H]2O[C@H](CO)[C@@H](O)[C@H]2O)c(=O)[nH]c1=O [Sample N1-methylpseudouridine, N1-methylpseudouridine]
HeLa cells
  RLU: 3068261 RLU

## CC(=O)Nc1ccn([C@@H]2O[C@H](CO)[C@@H](O)[C@H]2O)c(=O)n1 [Sample N4-Acetylcytidine, N4-Acetylcytidine]
HeLa cells
  RLU: 1073251 RLU

## Albumin
Mouse myoblast (C2C12)
  secreted G-CSF protein: 81050 pg/mL
HEK293A
  secreted G-CSF protein: 122050 pg/mL
Rat myoblast (L6 line)
  secreted G-CSF protein: 173300 pg/mL

## Prolactin
Mouse myoblast (C2C12)
  secreted G-CSF protein: 1525 pg/mL
HEK293A
  secreted G-CSF protein: 7875 pg/mL
Rat myoblast (L6 line)
  secreted G-CSF protein: 9800 pg/mL

## α-1-anti trypsin
Mouse myoblast (C2C12)
  secreted G-CSF protein: 5000 pg/mL
HEK293A
  secreted G-CSF protein: 9950 pg/mL
Rat myoblast (L6 line)
  secreted G-CSF protein: 8475 pg/mL

B1: unmodified G-CSF mRNA: G-CSF mRNA (SEQ ID NO: 4) with natural NTPs, Cap1 (nucleic acid)
chain: GGGAAAUAAGAGAGAAAAGAAGAGUAAGAAGAAAUAUAAGAGCCACCAUGGCCGGUCCCGCGACCCAAAGCCCCAUGAAACUUAUGGCCCUGCAGUUGCUGCUUUGGCACUCGGCCCUCUGGACAGUCCAAGAAGCGACUCCUCUCGGACCUGCCUCAUCGUUGCCGCAGUCAUUCCUUUUGAAGUGUCUGGAGCAGGUGCGAAAGAUUCAGGGCGAUGGAGCCGCACUCCAAGAGAAGCUCUGCGCGACAUACAAACUUUGCCAUCCCGAGGAGCUCGUACUGCUCGGGCACAGCUUGGGGAUUCCCUGGGCUCCUCUCUCGUCCUGUCCGUCGCAGGCUUUGCAGUUGGCAGGGUGCCUUUCCCAGCUCCACUCCGGUUUGUUCUUGUAUCAGGGACUGCUGCAAGCCCUUGAGGGAAUCUCGCCAGAAUUGGGCCCGACGCUGGACACGUUGCAGCUCGACGUGGCGGAUUUCGCAACAACCAUCUGGCAGCAGAUGGAGGAACUGGGGAUGGCACCCGCGCUGCAGCCCACGCAGGGGGCAAUGCCGGCCUUUGCGUCCGCGUUUCAGCGCAGGGCGGGUGGAGUCCUCGUAGCGAGCCACCUUCAAUCAUUUUUGGAAGUCUCGUACCGGGUGCUGAGACAUCUUGCGCAGCCGUGAAGCGCUGCCUUCUGCGGGGCUUGCCUUCUGGCCAUGCCCUUCUUCUCUCCCUUGCACCUGUACCUCUUGGUCUUUGAAUAAAGCCUGAGUAGGAAG
modifications: Cap1
BJ fibroblasts
  time to cytokine response (IFN-beta, IL-6): after one day
Human PBMC
  IFN-alpha / cytokine production: substantial IFN-alpha production
mice
  increase in neutrophil count above control: no pharmacologic effect
[1]
  freeze/thaw cycles tolerated: 12 cycles
[1]; stored at 25° C.
  stable out to: 48 h
[1]; stored at 37° C.
  stable out to: 6 h
[1]; stored at 50° C.
  stable out to: 2 h
BALB/C mice; G-CSF / IFN-alpha
  Protein: Cytokine Ratio (PC Ratio): 9
BALB/C mice; [2]
  G-CSF protein (human, serum): 605.6 pg/mL
  IFN-alpha expression (mouse, serum): 67.01 pg/mL
BALB/C mice; I.M., 200 ug/mouse (R848 75 ug/mouse), 8 hours after dosing
  PC Ratio (Protein: Cytokine Ratio): 9
BALB/C mice; IM, 8 hours
  human G-CSF expression in mouse serum: resulted in human G-CSF expression in mouse serum
  mouse IFN-alpha in the serum (cytokine response): robust cytokine response
